Results published in patent US20260262643A1, “HERBICIDAL BENZOXAZINES” (FMC CORPORATION, priority 2022, published 2026).
Where two headings read alike, the source gives them in different places.

Tests used:
galium = test: Test A postemergence; format: in vivo, Galium aparine; details: Galium, post-emergence, 240 h, read-out: Plant response rating, Galium; for pest or weed control at 125 g/ha: 125 g ai/ha; for pest or weed control at 500 g/ha: 500 g ai/ha
Method in brief: (§1)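 Greenhouse pot test, 10 days. Compound (non-phytotoxic solvent, surfactant) sprayed on soil at seeding or on seedlings at one- to two-leaf stage. Visual injury rated 0–100 against untreated plants.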

pigweed, palmer = test: Test A postemergence; format: in vivo, Amaranthus palmeri; details: Amaranthus palmeri, post-emergence, 240 h, read-out: Plant response rating, Pigweed, Palmer; for pest or weed control at 500 g/ha: 500 g ai/ha; for pest or weed control at 125 g/ha: 125 g ai/ha
Method in brief: as §1

soybean = test: Test A preemergence; format: in vivo, Glycine max; details: Glycine max, pre-emergence, 240 h, read-out: Plant response rating, Soybean; for plant injury at 125 g/ha: 125 g ai/ha, visual injury after 10 days, 0 to 100 scale, 0 is no effect, 100 is complete control; for plant injury at 500 g/ha: 500 g ai/ha, 0 to 100 scale (0 no effect, 100 complete control), 10 days
Method in brief: as §1

sedge, umbrella = test: Test B flooded paddy test; format: in vivo, Cyperus difformis; details: Cyperus difformis, 312 h; 250 g ai/ha, Flood, 13 days, 0 to 100 scale (0 no effect, 100 complete control); read-out: Plant response rating, Sedge, Umbrella
Method in brief: (§2)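 Percent weed or crop control, judged by eye on a 0–100 scale 13 days post-treatment, reflects compound added to a 3 cm flood maintained over 2-leaf plants in the greenhouse. Missing entries are marked with a dash.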

foxtail, giant = test: Test A postemergence; format: in vivo, Setaria faberi; details: Setaria faberi, post-emergence, 240 h, read-out: Plant response rating, Foxtail, Giant; for pest or weed control at 125 g/ha: 125 g ai/ha; for pest or weed control at 500 g/ha: 500 g ai/ha
Method in brief: as §1

kochia = test: Test A postemergence; format: in vivo, Bassia scoparia; details: Bassia scoparia, post-emergence, 240 h, read-out: Plant response rating, Kochia; for pest or weed control at 125 g/ha: 125 g ai/ha; for pest or weed control at 500 g/ha: 500 g ai/ha
Method in brief: as §1

barnyardgrass = test: Test B flooded paddy test; format: in vivo, Echinochloa crus-galli; details: Echinochloa crus-galli, 312 h, 250 g ai/ha, Flood, 13 days, 0 to 100 scale (0 no effect, 100 complete control); read-out: Plant response rating, Barnyardgrass
Method in brief: as §2

ryegrass, Italian = test: Test A postemergence; format: in vivo, Lolium multiflorum; details: Lolium multiflorum, post-emergence, 240 h, read-out: Plant response rating, Ryegrass, Italian; for pest or weed control at 500 g/ha: 500 g ai/ha; for pest or weed control at 125 g/ha: 125 g ai/ha
Method in brief: as §1

goosegrass [1] = test: Test A preemergence; format: in vivo, Eleusine indica; details: Eleusine indica, pre-emergence, 240 h, read-out: Plant response rating, Goosegrass; for pest or weed control at 125 g/ha: 125 g ai/ha, visual injury after 10 days, 0 to 100 scale, 0 is no effect, 100 is complete control; for pest or weed control at 500 g/ha: 500 g ai/ha, 0 to 100 scale (0 no effect, 100 complete control), 10 days
Method in brief: as §1

blackgrass = test: Test A preemergence; format: in vivo, Alopecurus myosuroides; details: Alopecurus myosuroides, pre-emergence, 240 h, read-out: Plant response rating, Blackgrass; for pest or weed control at 125 g/ha: 125 g ai/ha, visual injury after 10 days, 0 to 100 scale, 0 is no effect, 100 is complete control; for pest or weed control at 500 g/ha: 500 g ai/ha, 0 to 100 scale (0 no effect, 100 complete control), 10 days
Method in brief: as §1

corn = test: Test A postemergence; format: in vivo, Zea mays; details: Zea mays, post-emergence, 240 h; for Corn plant response rating (crop injury, 0 = no effect, 100 = complete kill) at 125 g/ha: 125 g ai/ha; for Corn plant response rating (crop injury, 0 = no effect, 100 = complete kill) at 500 g/ha: 500 g ai/ha
Method in brief: as §1

goosegrass [2] = test: Test A postemergence; format: in vivo, Eleusine indica; details: Eleusine indica, post-emergence, 240 h, read-out: Plant response rating, Goosegrass; for pest or weed control at 125 g/ha: 125 g ai/ha; for pest or weed control at 500 g/ha: 500 g ai/ha
Method in brief: as §1

rice = test: Test B flooded paddy test; format: in vivo, Oryza sativa; details: Oryza sativa, 312 h; 250 g ai/ha, Flood, 13 days, 0 to 100 scale (0 no effect, 100 complete control); read-out: Plant response rating, Rice
Method in brief: as §2

ragweed = test: Test A preemergence; format: in vivo, Ambrosia artemisiifolia; details: Ambrosia artemisiifolia, pre-emergence, 240 h, read-out: Plant response rating, Ragweed; for pest or weed control at 125 g/ha: 125 g ai/ha, visual injury after 10 days, 0 to 100 scale, 0 is no effect, 100 is complete control; for pest or weed control at 500 g/ha: 500 g ai/ha, 0 to 100 scale (0 no effect, 100 complete control), 10 days
Method in brief: as §1

[3] = postemergence, 10 days, visual injury, 0 to 100 scale (0 no effect, 100 complete control)

Structure (SMILES) | pest or weed control at 125 g/ha (galium; [3]) | pest or weed control at 500 g/ha (galium; [3]) | pest or weed control at 500 g/ha (pigweed, palmer; [3]) | plant injury at 125 g/ha (soybean) | plant injury at 500 g/ha (soybean) | pest or weed control at 250 g/ha (sedge, umbrella) | pest or weed control at 125 g/ha (foxtail, giant; [3]) | pest or weed control at 500 g/ha (foxtail, giant; [3]) | pest or weed control at 125 g/ha (kochia; [3]) | pest or weed control at 500 g/ha (kochia; [3]) | pest or weed control at 250 g/ha (barnyardgrass) | pest or weed control at 125 g/ha (goosegrass [1]) | pest or weed control at 500 g/ha (goosegrass [1]) | pest or weed control at 125 g/ha (blackgrass) | pest or weed control at 500 g/ha (blackgrass) | Corn plant response rating (crop injury, 0 = no effect, 100 = complete kill) at 125 g/ha (corn; [3]) | pest or weed control at 125 g/ha (goosegrass [2]; [3]) | plant injury at 250 g/ha (rice) | pest or weed control at 125 g/ha (ragweed) | pest or weed control at 500 g/ha (ragweed) | further results
Cc1ncn(-c2ccc(C)c(C(=O)N3C[C@H](C)Oc4c(Cl)cccc43)c2)n1 (single isomer, unassigned) [Compound 74] | 100% | 100% | 70% | 70% | 100% | 95% | 90% | 90% | 70% | 90% | 10% | 100% | 100% | 70% | 90% | 60% | 0% | 20% | 0% | 100% | pest or weed control at 500 g/ha (ryegrass, Italian; [3]): 100%; Corn plant response rating (crop injury, 0 = no effect, 100 = complete kill) at 500 g/ha (corn; [3]): 90%; pest or weed control at 500 g/ha (goosegrass [2]; [3]): 0%
Cc1cccc2c1O[C@@H](C)CN2C(=O)c1cccc(-n2cnc(Br)n2)c1 [Compound 61, [3-(3-Bromo-1H-1,2,4-triazol-1-yl)phenyl][(2S)-2,3-dihydro-2,8-dimethyl-4H-1,4-benzoxazin-4-yl]methanone] | 70% |  |  | 0% | 30% | 45% | 60% |  | 20% |  | 0% | 90% | 90% | 50% | 70% | 10% | 10% | 0% | 0% | 40% | pest or weed control at 500 g/ha (galium; Postemergence, 0 to 100 scale): 100%; pest or weed control at 125 g/ha (pigweed, palmer; [3]): 40%; pest or weed control at 500 g/ha (pigweed, palmer; Postemergence, 0 to 100 scale): 50%; pest or weed control at 500 g/ha (foxtail, giant; Postemergence, 0 to 100 scale): 80%; pest or weed control at 500 g/ha (kochia; Postemergence, 0 to 100 scale): 70%; pest or weed control at 125 g/ha (ryegrass, Italian; [3]): 40%; pest or weed control at 500 g/ha (ryegrass, Italian; Postemergence, 0 to 100 scale): 40%; Corn plant response rating (crop injury, 0 = no effect, 100 = complete kill) at 500 g/ha (corn; Postemergence, 0 to 100 scale): 10%; pest or weed control at 500 g/ha (goosegrass [2]; Postemergence, 0 to 100 scale): 50%
COc1ccc(-n2cncn2)cc1C(=O)N1C[C@H](C)Oc2c(C)cccc21 [Compound 63, [(2S)-2,3-Dihydro-2,8-dimethyl-4H-1,4-benzoxazin-4-yl][2-methoxy-5-(1H-1,2,4-triazol-1-yl)phenyl]methanone] | 100% |  |  | 100% | 100% | 98% | 90% |  | 10% |  | 0% | 100% | 100% | 80% | 90% | 80% | 70% | 0% | 0% | 40% | pest or weed control at 500 g/ha (galium; Postemergence, 0 to 100 scale): 100%; pest or weed control at 125 g/ha (pigweed, palmer; [3]): 30%; pest or weed control at 500 g/ha (pigweed, palmer; Postemergence, 0 to 100 scale): 40%; pest or weed control at 500 g/ha (foxtail, giant; Postemergence, 0 to 100 scale): 90%; pest or weed control at 500 g/ha (kochia; Postemergence, 0 to 100 scale): 20%; pest or weed control at 125 g/ha (ryegrass, Italian; [3]): 80%; pest or weed control at 500 g/ha (ryegrass, Italian; Postemergence, 0 to 100 scale): 100%; Corn plant response rating (crop injury, 0 = no effect, 100 = complete kill) at 500 g/ha (corn; Postemergence, 0 to 100 scale): 80%; pest or weed control at 500 g/ha (goosegrass [2]; Postemergence, 0 to 100 scale): 80%
Cc1ccc(-n2cnc(C(C)(C)C)n2)cc1C(=O)N1C[C@H](C)Oc2c(Cl)cccc21 [Compound 76, [(2S)-8-Chloro-2,3-dihydro-2-methyl-4H-1,4-benzoxazin-4-yl][5-[3-(1,1-dimethylethyl)-1H-1,2,4-triazol-1-yl]-2-methylphenyl]methanone] | 100% | 100% | 100% | 50% | 100% | 98% | 90% | 90% | 90% | 90% | 25% | 100% | 100% |  |  | 60% | 50% | 0% | 30% | 30% | pest or weed control at 500 g/ha (ryegrass, Italian; [3]): 80%; Corn plant response rating (crop injury, 0 = no effect, 100 = complete kill) at 500 g/ha (corn; [3]): 60%; pest or weed control at 500 g/ha (goosegrass [2]; [3]): 80%
